Test results from patent US8445481B2, “Scaffold-diversified pyrrolidinone derivatives and their use” (The University of Chicago, priority 2007, dated 2013).

Assays:
hACC2 = target: T1, hACC2 (Homo sapiens, UniProt O00763); details: reference ACC inhibitor; cited from earlier work
T1 construct: expressed in transfected cells; host or cells: Saccharomyces cerevisiae

A549 cells [1] = assay: Intracellular ATP level of A549 cells with or without antimycin A; type: cell-based; details: presence versus absence of antimycin A (10 nM)
Protocol: (§1) A high-throughput assay was developed for identification of new inhibitors of glycolysis. The effect of the pyrrolidinone library on intracellular ATP level of A549 cells was tested in either the presence or absence of antimycin A (inhibitor of mitochondrial electron-transport chain). […] Initial hits were further verified by evaluating their effects on lactate production. Since lactate is a toxic end-product of glycolysis effluxed to the intercellular space, treatment of cells with glycolytic inhibitors should lead to decreased levels of lactate in cell culture medium.

A549 cells [2] = assay: Cancer cell proliferation, A549; type: cell-based
Protocol: (§2) Since respiration and glycolysis are tightly coupled in eukaryotic cells, a combination of suppressors of respiration with inhibitors of glycolysis were tested for cytotoxic phenotype.

CHO-K1 cells = assay: Cell proliferation, CHO-K1; type: cell-based
Protocol: as §2

U-87MG glioma cells = assay: Combination of respiration suppressor and glycolysis inhibitor, cytotoxicity; type: cell-based; details: in combination with leucascandrolide A
Protocol: as §2

glycolysis = assay: Lactate production in cell culture medium; type: cell-based
Protocol: as §1

cells = assay: Cell cycle arrest; type: cell-based
[3] = test system: cellular glucose consumption; assay: Cellular glucose consumption; type: cell-based
caspase-3/7 = assay: Time-dependence of caspase-3/7 activation; type: cell-based; details: HL-60 cells, time after treatment
tumor cells = assay: Sensitisation of tumor cells to 2-deoxyglucose; type: cell-based
Protocol: as §2

T1 sequence (O00763 whole entry): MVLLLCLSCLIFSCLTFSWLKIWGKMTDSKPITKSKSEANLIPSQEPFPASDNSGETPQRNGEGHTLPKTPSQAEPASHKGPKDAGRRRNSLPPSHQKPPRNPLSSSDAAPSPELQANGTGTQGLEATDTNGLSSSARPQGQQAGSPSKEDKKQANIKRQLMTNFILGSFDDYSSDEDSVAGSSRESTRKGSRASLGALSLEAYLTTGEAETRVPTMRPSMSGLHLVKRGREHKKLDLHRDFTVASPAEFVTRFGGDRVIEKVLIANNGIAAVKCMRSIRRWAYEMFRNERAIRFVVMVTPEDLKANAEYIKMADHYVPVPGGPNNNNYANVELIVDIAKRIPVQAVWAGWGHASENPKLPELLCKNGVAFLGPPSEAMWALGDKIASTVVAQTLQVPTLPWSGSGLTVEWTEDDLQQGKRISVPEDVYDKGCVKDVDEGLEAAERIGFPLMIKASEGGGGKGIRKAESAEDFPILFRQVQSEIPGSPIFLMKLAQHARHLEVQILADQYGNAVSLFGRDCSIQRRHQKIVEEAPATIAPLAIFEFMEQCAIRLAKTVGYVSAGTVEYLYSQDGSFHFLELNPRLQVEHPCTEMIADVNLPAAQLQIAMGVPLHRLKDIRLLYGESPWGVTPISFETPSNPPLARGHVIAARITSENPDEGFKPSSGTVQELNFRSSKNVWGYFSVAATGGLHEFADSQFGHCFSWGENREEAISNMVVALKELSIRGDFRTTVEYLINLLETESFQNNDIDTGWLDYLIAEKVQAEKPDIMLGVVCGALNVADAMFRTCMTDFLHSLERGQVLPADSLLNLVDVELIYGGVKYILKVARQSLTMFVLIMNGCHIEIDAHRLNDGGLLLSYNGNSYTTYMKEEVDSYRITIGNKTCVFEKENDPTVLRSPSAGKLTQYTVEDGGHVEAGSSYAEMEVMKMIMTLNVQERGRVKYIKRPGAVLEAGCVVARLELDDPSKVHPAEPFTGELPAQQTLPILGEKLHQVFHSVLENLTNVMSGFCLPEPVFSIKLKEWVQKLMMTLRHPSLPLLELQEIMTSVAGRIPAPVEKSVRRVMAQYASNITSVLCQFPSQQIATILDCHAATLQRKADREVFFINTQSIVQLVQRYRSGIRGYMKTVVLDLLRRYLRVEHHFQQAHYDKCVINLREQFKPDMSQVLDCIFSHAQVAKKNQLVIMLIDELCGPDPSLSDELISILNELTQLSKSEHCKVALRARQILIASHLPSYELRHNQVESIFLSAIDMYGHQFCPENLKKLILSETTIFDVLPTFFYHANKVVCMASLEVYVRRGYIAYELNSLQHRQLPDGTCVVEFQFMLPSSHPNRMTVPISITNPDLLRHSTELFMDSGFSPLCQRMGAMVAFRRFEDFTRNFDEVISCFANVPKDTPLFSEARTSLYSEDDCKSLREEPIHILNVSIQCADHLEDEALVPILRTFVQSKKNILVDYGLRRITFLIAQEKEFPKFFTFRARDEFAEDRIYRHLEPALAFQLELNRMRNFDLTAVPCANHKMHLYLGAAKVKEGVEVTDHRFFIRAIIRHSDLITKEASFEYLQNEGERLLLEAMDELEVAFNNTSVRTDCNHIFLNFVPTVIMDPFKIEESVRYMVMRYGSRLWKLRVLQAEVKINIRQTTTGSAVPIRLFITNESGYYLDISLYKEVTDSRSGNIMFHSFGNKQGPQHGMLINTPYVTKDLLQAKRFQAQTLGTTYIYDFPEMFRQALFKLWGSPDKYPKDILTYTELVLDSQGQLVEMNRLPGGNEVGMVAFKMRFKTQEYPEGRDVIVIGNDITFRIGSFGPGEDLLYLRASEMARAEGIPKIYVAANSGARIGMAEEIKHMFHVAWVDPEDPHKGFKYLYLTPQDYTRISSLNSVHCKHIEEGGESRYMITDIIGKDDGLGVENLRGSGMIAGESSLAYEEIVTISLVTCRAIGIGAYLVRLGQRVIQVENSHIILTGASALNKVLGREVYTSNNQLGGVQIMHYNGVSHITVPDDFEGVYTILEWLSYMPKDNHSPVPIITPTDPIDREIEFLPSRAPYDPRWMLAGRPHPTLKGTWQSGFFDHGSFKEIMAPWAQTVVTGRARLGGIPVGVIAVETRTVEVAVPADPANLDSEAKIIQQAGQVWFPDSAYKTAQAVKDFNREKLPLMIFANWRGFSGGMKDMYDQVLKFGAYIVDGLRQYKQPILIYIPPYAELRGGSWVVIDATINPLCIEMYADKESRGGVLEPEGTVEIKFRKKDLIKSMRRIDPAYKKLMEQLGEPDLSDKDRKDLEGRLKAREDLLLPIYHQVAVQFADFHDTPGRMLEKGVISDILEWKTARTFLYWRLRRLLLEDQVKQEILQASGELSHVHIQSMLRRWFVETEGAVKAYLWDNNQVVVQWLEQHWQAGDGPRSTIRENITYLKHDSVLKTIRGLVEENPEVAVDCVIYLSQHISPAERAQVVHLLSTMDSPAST

Compound	suppression of ATP production (A549 cells [1])	effect on cancer cell proliferation (A549 cells [2])	effect on cell proliferation (CHO-K1 cells)	lactate production (glycolysis)	cell cycle arrest (cells)	other results
CC(C#Cc1cnc(Oc2ccc(Oc3ccccc3)cc2)s1)N(O)C(N)=O (stereo not shown) [Example A-80040]	–	–	–	–	–	ACC2 specificity (hACC2): certain level of ACC2 specificity
COC(=O)[C@@]12CCCCC=C1N(CCC1=CCCCC1)C(=O)[C@H]2CC(=O)NCc1ccc(OC)c(OC)c1 [Example P8A7]	suppressed ATP production more efficiently in the presence of antimycin A	cytostatic effect	cytostatic effect	inhibited lactate production	arrested cells in G1 phase	cell death on combined treatment (U-87MG glioma cells): severe cell death
COC(=O)[C@@]12CCCCC/C=C\1N(Cc1cccc3ccccc13)C(=O)[C@H]2CC(=O)N1CCN(C(=O)c2ccco2)CC1 [Example P9E11]	suppressed ATP production more efficiently in the presence of antimycin A	cytostatic effect	cytostatic effect	inhibited lactate production	arrested cells in G1 phase	cellular glucose consumption [3]: rapidly inhibited cellular glucose consumption; activity profile compared with cytochalasin B ([3]; cytochalasin B is an established inhibitor of glucose transport): essentially identical activity profile to cytochalasin B
CN[C@@H]1C[C@H]2O[C@@](C)([C@@H]1OC)n1c3ccccc3c3c4c(c5c6ccccc6n2c5c31)C(=O)NC4 [staurosporine]	–	–	–	–	–	caspase-3/7 activation over time (caspase-3/7): increased activity between 3 and 6 hours after treatment, after which activity decreased
rhodamine 123	–	–	–	–	–	sensitisation of tumor cells to 2-deoxyglucose (tumor cells): hypersensitized tumor cells to treatment with 2-deoxyglucose
